Data from patent publication US20210308089A1, “METHODS OF TREATING AND/OR PREVENTING VIRAL INFECTIONS AND/OR DISEASES CAUSED BY VIRUSES IN A SUBJECT IN NEED THEREOF” (priority 2020, published 2021).

Test system: patients of the REDUCE-IT and earlier EPA placebo-controlled trials
Assay: Example 3: adverse events by risk ratio, icosapent ethyl vs placebo (candidate categories; infectious disease terms of interest)
Conditions: R-I
[1] = Cognitive Decline: Attention disorders and disturbances
[2] = Cognitive Decline: Cognitive and attention disorders and disturbances
[3] = Depression: Depressed mood disorders and disturbances
[4] = Depression: Depressive disorders
[5] = Depression: Depressive disorders - Depression
[6] = Depression: Depressive disorders - Major depression
[7] = Depression: Depressive disorders - Persistent depressive disorder
[8] = Depression: Depressive disorders- Agitated depression
[9] = Depression: Mood alterations - Depressed mood
[10] = Depression: Mood alterations - Depressive symptom
[11] = Depression: Mood alterations with depressive symptoms
[12] = Glomerulonephritis and Nephrotic Syndrome

**Q.** With `CC/C=C\C/C=C\C/C=C\C/C=C\C/C=C\CCCC(=O)OCC` [icosapent ethyl, eicosapentaenoic acid ethyl ester] as the compound, how does the ARR (Bipolar Disease) read?
**A.** −0.0%

**Q.** And the NNT (Bipolar Disease)?
**A.** 2045

**Q.** And the “Risk Ratio (95% CI)” value (Bipolar Disease)?
**A.** 0.333 (0.035 to 3.204) 4

**Q.** And the ARR (Blood CPK increased)?
**A.** −0.6%

**Q.** What about the NNT (Blood CPK increased) of the same compound?
**A.** 164

**Q.** And the “Risk Ratio (95% CI)” value (Blood CPK increased)?
**A.** 0.684 (0.485 to 0.964) 2

**Q.** What about the ARR (Bone Fractures) of the same compound?
**A.** 0.0%

**Q.** What about the NNT (Bone Fractures) of the same compound?
**A.** −4088

**Q.** And the “Risk Ratio (95% CI)” value (Bone Fractures)?
**A.** 2.000 (0.181 to 22.053) −3

**Q.** What about the ARR (Breast Cancer) of the same compound?
**A.** 0.0%

**Q.** And the NNT (Breast Cancer)?
**A.** −2389144

**Q.** What about the “Risk Ratio (95% CI)” value (Breast Cancer) of the same compound?
**A.** 1.000 (0.351 to 2.849) −1

**Q.** What about the ARR (CKD) of the same compound?
**A.** 0.1%

**Q.** And the NNT (CKD)?
**A.** −680

**Q.** What about the “Risk Ratio (95% CI)” value (CKD) of the same compound?
**A.** 1.123 (0.766 to 1.646) −1

**Q.** What about the ARR (COPD) of the same compound?
**A.** 0.2%

**Q.** And the NNT (COPD)?
**A.** −453

**Q.** What about the “Risk Ratio (95% CI)” value (COPD) of the same compound?
**A.** 1.084 (0.837 to 1.405) −1

**Q.** And the ARR (Chrohn's Disease)?
**A.** −0.0%

**Q.** And the NNT (Chrohn's Disease)?
**A.** 2045

**Q.** What about the “Risk Ratio (95% CI)” value (Chrohn's Disease) of the same compound?
**A.** 0.333 (0.035 to 3.204) 4

**Q.** And the ARR (Chronic Lymphycytic Leukaemia)?
**A.** 0.1%

**Q.** What about the NNT (Chronic Lymphycytic Leukaemia) of the same compound?
**A.** −1363

**Q.** And the “Risk Ratio (95% CI)” value (Chronic Lymphycytic Leukaemia, case counts given)?
**A.** [3 drug vs 0 PBO]

**Q.** What about the ARR [1] of the same compound?
**A.** 0.0%

**Q.** What about the NNT [1] of the same compound?
**A.** −8362005

**Q.** What about the “Risk Ratio (95% CI)” value [1] of the same compound?
**A.** 1.000 (0.141 to 7.097) −1

**Q.** And the ARR [2]?
**A.** 0.0%

**Q.** And the NNT [2]?
**A.** −8362005

**Q.** What about the “Risk Ratio (95% CI)” value [2] of the same compound?
**A.** 1.000 (0.141 to 7.097) −1

**Q.** What about the “Risk Ratio (95% CI)” value (Cognitive Decline: Cognitive disturbances) of the same compound?
**A.** [No cases in study]

**Q.** What about the ARR (Colon Cancer) of the same compound?
**A.** 0.1%

**Q.** What about the NNT (Colon Cancer) of the same compound?
**A.** −1022

**Q.** What about the “Risk Ratio (95% CI)” value (Colon Cancer) of the same compound?
**A.** 2.000 (0.603 to 6.638) −3

**Q.** And the ARR (Cough)?
**A.** −0.2%

**Q.** And the NNT (Cough)?
**A.** 455

**Q.** And the “Risk Ratio (95% CI)” value (Cough)?
**A.** 0.526 (0.245 to 1.131) 3

**Q.** What about the “Risk Ratio (95% CI)” value (Cystic Fibrosis) of the same compound?
**A.** [No cases in study]

**Q.** What about the ARR (Decreased Appetite) of the same compound?
**A.** 0.5%

**Q.** And the NNT (Decreased Appetite)?
**A.** −215

**Q.** What about the “Risk Ratio (95% CI)” value (Decreased Appetite) of the same compound?
**A.** 2.584 (1.329 to 5.024) −4

**Q.** What about the ARR (Deep Venous Thromboembolism) of the same compound?
**A.** −0.1%

**Q.** What about the NNT (Deep Venous Thromboembolism) of the same compound?
**A.** 1364

**Q.** And the “Risk Ratio (95% CI)” value (Deep Venous Thromboembolism)?
**A.** 0.625 (0.205 to 1.909) 2

**Q.** What about the ARR [3] of the same compound?
**A.** 0.3%

**Q.** And the NNT [3]?
**A.** −340

**Q.** What about the “Risk Ratio (95% CI)” value [3] of the same compound?
**A.** 1.106 (0.861 to 1.422) −1

**Q.** What about the ARR [4] of the same compound?
**A.** 0.3%

**Q.** What about the NNT [4] of the same compound?
**A.** −314

**Q.** What about the “Risk Ratio (95% CI)” value [4] of the same compound?
**A.** 1.123 (0.867 to 1.454) −1

**Q.** And the ARR [5]?
**A.** 0.2%

**Q.** And the NNT [5]?
**A.** −408

**Q.** What about the “Risk Ratio (95% CI)” value [5] of the same compound?
**A.** 1.097 (0.843 to 1.428) −1

**Q.** And the ARR [6]?
**A.** 0.0%

**Q.** What about the NNT [6] of the same compound?
**A.** −2044

**Q.** And the “Risk Ratio (95% CI)” value [6]?
**A.** 3.001 (0.312 to 28.836) −4

**Q.** And the ARR [7]?
**A.** 0.0%

**Q.** And the NNT [7]?
**A.** −4088

**Q.** What about the “Risk Ratio (95% CI)” value [7] of the same compound?
**A.** 2.000 (0.181 to 22.053) −3

**Q.** And the ARR [8]?
**A.** 0.0%

**Q.** And the NNT [8]?
**A.** −2044

**Q.** What about the “Risk Ratio (95% CI)” value (Depression: Depressive disorders- Agitated depression, case counts given) of the same compound?
**A.** [2 drug vs 0 PBO]

**Q.** What about the ARR [9] of the same compound?
**A.** 0.0%

**Q.** And the NNT [9]?
**A.** −3344802

**Q.** What about the “Risk Ratio (95% CI)” value [9] of the same compound?
**A.** 1.000 (0.290 to 3.452) −1

**Q.** And the ARR [10]?
**A.** −0.0%

**Q.** And the NNT [10]?
**A.** 4091

**Q.** And the “Risk Ratio (95% CI)” value [10]?
**A.** 0.500 (0.045 to 5.513) 3

**Q.** And the ARR [11]?
**A.** −0.0%

**Q.** And the NNT [11]?
**A.** 4096

**Q.** And the “Risk Ratio (95% CI)” value [11]?
**A.** 0.857 (0.288 to 2.549) 1

**Q.** What about the ARR (Dermatitis psoriasiform) of the same compound?
**A.** 0.0%

**Q.** And the NNT (Dermatitis psoriasiform)?
**A.** −4089

**Q.** And the “Risk Ratio (95% CI)” value (Dermatitis psoriasiform, case counts given)?
**A.** [1 drug vs 0 PBO]

**Q.** What about the ARR (Dermatitis, allergic) of the same compound?
**A.** −0.2%

**Q.** What about the NNT (Dermatitis, allergic) of the same compound?
**A.** 454

**Q.** And the “Risk Ratio (95% CI)” value (Dermatitis, allergic)?
**A.** 0.250 (0.071 to 0.885) 4

**Q.** And the ARR (Diabetic Nephropathy)?
**A.** −0.0%

**Q.** What about the NNT (Diabetic Nephropathy) of the same compound?
**A.** 4100

**Q.** And the “Risk Ratio (95% CI)” value (Diabetic Nephropathy)?
**A.** 0.909 (0.387 to 2.139) 1

**Q.** What about the ARR (Dry Eye) of the same compound?
**A.** 0.1%

**Q.** And the NNT (Dry Eye)?
**A.** −1020

**Q.** And the “Risk Ratio (95% CI)” value (Dry Eye)?
**A.** 1.129 (0.698 to 1.828) −1

**Q.** What about the ARR (ESRD) of the same compound?
**A.** −0.0%

**Q.** And the NNT (ESRD)?
**A.** 4092

**Q.** What about the “Risk Ratio (95% CI)” value (ESRD) of the same compound?
**A.** 0.667 (0.111 to 3.989) 2

**Q.** What about the ARR (Embolism and Thrombosis) of the same compound?
**A.** 0.1%

**Q.** And the NNT (Embolism and Thrombosis)?
**A.** −1358

**Q.** What about the “Risk Ratio (95% CI)” value (Embolism and Thrombosis) of the same compound?
**A.** 1.064 (0.716 to 1.581) −1

**Q.** What about the ARR (Epilepsy) of the same compound?
**A.** 0.0%

**Q.** And the NNT (Epilepsy)?
**A.** −1.67e+07

**Q.** What about the “Risk Ratio (95% CI)” value (Epilepsy) of the same compound?
**A.** 1.000 (0.063 to 15.986)−1

**Q.** What about the ARR (Erectile dysfunction) of the same compound?
**A.** −0.4%

**Q.** And the NNT (Erectile dysfunction)?
**A.** 232

**Q.** What about the “Risk Ratio (95% CI)” value (Erectile dysfunction) of the same compound?
**A.** 0.784 (0.535 to 1.151) 2

**Q.** And the ARR (Gastric Cancer)?
**A.** 0.0%

**Q.** And the NNT (Gastric Cancer)?
**A.** −4088

**Q.** And the “Risk Ratio (95% CI)” value (Gastric Cancer)?
**A.** 2.000 (0.181 to 22.053) −3

**Q.** And the ARR (Gastroesophageal reflux)?
**A.** −0.1%

**Q.** And the NNT (Gastroesophageal reflux)?
**A.** 682

**Q.** What about the “Risk Ratio (95% CI)” value (Gastroesophageal reflux) of the same compound?
**A.** 0.333 (0.090 to 1.231) 4

**Q.** And the ARR [12]?
**A.** −0.1%

**Q.** And the NNT [12]?
**A.** 1023

**Q.** What about the “Risk Ratio (95% CI)” value (Glomerulonephritis and Nephrotic Syndrome, case counts given) of the same compound?
**A.** [0 drug vs 4 PBO]

**Q.** And the ARR (Guttate psoriasis)?
**A.** 0.0%

**Q.** And the NNT (Guttate psoriasis)?
**A.** −4089
